27 molecules from PubChem BioAssay AID588671 (Sanford-Burnham Center for Chemical Genomics, 2011) can be followed below.

The structures appear in SMILES notation. pIC50: −log10 of the molar value. Activity calls are given as the source filed them.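 How the source made its calls: active means IC50 at or below 20 µM; inactive means the rest.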

This test concerns the target glucose-6-phosphate dehydrogenase-6-phosphogluconolactonase (PfGluPho), Plasmodium falciparum 3D7. The experiment in a line: inhibition of P. falciparum G6PD activity – biochemical, fluorescence intensity, set 2, SAR follow-up (AID 588671). The settings on record: recombinant PfGluPho, diaphorase-resazurin NADPH fluorescence.
One may read the IC50 as the point on the concentration scale where inhibition reaches its midpoint. As for `O=C1Nc2cc(C(=O)NCc3ccccc3)ccc2S/C1=C\c1ccccc1F`, the IC50 is > 80 µM (inactive). The pIC50 is the IC50 on a negative log10 scale, so that one unit is a factor of ten. In the case of `CCN1CCCC1CNC(=O)c1ccc2c(c1)NC(=O)/C(=C/c1ccccc1C)S2` (configuration not stated), the pIC50 was 5.23. As for `CCN(CC)CCNC(=O)c1ccc2c(c1)NC(=O)c1ccccc1O2`, the IC50 entry was “inactive”. On the same count and under the same terms, as for `CCN(CC)CCNC(=O)c1ccc2c(c1)NC(=O)c1ccccc1S2`, the entry is “inactive”. On the same count and under the same terms, as for `CCN(CC)CCNC(=O)c1ccc2c(c1)NC(=O)CO2`, the figure is > 80 µM (inactive); as for `O=C1Nc2cc(C(=O)NCCN3CCCCC3)ccc2S/C1=C\c1ccccc1F`, “inactive”. As to `O=C(NCCN1CCOCC1)c1ccc2c(c1)NC(=O)c1ccccc1O2`, the IC50 is > 80 µM (inactive). Same read-out and setting: as for `CN(C)CCNC(=O)c1ccc2c(c1)NC(=O)c1ccccc1O2`, the figure is > 80 µM (inactive). Same read-out and setting: as for `O=C1COc2ccc(C(=O)NCCN3CCOCC3)cc2N1`, the figure is > 80 µM (inactive). Turning to `CCN1CCCC1CNC(=O)c1ccc2c(c1)NC(=O)/C(=C/c1ccccc1F)S2` (configuration not stated), the pIC50 was 5.77. As for `O=C(NCCN1CCCC1)c1ccc2c(c1)NC(=O)c1ccccc1S2`, the IC50 entry is “inactive”. Same read-out and setting: as for `CN1CCCC1CCNC(=O)c1ccc2c(c1)NC(=O)/C(=C/c1ccccc1F)S2` (configuration not stated), the entry is “inactive”. `CCN1CCC[C@@H]1CNC(=O)c1ccc2c(c1)NC(=O)/C(=C/c1ccccc1F)S2`: the pIC50 was 5.92.

Consider `CN(C)CCNC(=O)c1ccc2c(c1)NC(=O)CO2`, for which the IC50 was > 80 µM (inactive).

Take `O=C(NCCN1CCCCC1)c1ccc2c(c1)NC(=O)c1ccccc1O2`: the IC50 entry was “inactive”. For `CCN1CCC[C@H]1CNC(=O)c1ccc2c(c1)NC(=O)/C(=C/c1ccccc1F)S2`, the pIC50 is 5.32. `CN1CCN(C(=O)c2ccc3c(c2)NC(=O)/C(=C/c2ccccc2Cl)S3)CC1`: the IC50 was > 80 µM (inactive). Same read-out and setting: as for `O=C(NCCN1CCCC1)c1ccc2c(c1)NC(=O)c1ccccc1O2`, the entry is “inactive”. Take `CCN1CCCC1CNC(=O)c1ccc2c(c1)NC(=O)/C(=C/c1cccc3ccccc13)S2` (configuration not stated): the pIC50 is 5.37. For the molecule `CCN1CCCC1CNC(=O)c1ccc2c(c1)NC(=O)/C(=C/c1ccccc1OC)S2` (configuration not stated), the pIC50 was 5.01. Still for that read-out and setting: as for `CCN1CCCC1CNC(=O)c1ccc2c(c1)NC(=O)c1ccccc1S2` (configuration not stated), the figure is 5.00. Turning to `O=C1COc2ccc(C(=O)NCCN3CCCC3)cc2N1`, the IC50 was > 80 µM (inactive). `CCN1CCCC1CNC(=O)c1ccc2c(c1)NC(=O)CO2` (configuration not stated): the IC50 is > 80 µM (inactive). Still for that read-out and setting: under `O=C1Nc2cc(C(=O)NCCN3CCOCC3)ccc2S/C1=C\c1ccccc1F` stands > 80 µM (inactive); under `CCN1CCCC1CNC(=O)c1ccc2c(c1)NC(=O)c1ccccc1O2` (configuration not stated), “inactive”. Still for that read-out and setting: under `O=C1COc2ccc(C(=O)NCCN3CCCCC3)cc2N1` stands > 80 µM (inactive); under `CCN1CCCC1CNC(=O)c1ccc2c(c1)NC(=O)CS2` (configuration not stated), > 80 µM (inactive).
